{"source": "patent US20160331716A1", "about": "“MOLECULAR TARGETS FOR HEALING OR TREATING WOUNDS” (UNIVERSITY COLLEGE CARDIFF CONSULTANTS LIMITED, priority 2011, published 2016)", "key": {"[1]": {"tested_on": "HaCaT cells", "experiment": "ECIS wounding (migration) assay, HaCaT keratinocytes", "assay_type": "cell-based, human", "conditions": "over a range of concentrations", "procedure": "(§1) Three models of ECIS instrument were used: ECIS 9600 for screening and ECIS1600R and ECIS Z8 for modelling. In all systems, 8W10 arrays were used (Applied Biophysics Inc., Troy, N.Y., USA) (Giaever and Keese 1991, Kees et al 2004). Following treating the array surface with a Cysteine solution (or array stabilization procedure for ECIS Z8), the arrays were incubated with complete medium for 1 hr Electric changes were continuously monitored for up to 24 hrs. In the 9600 system, the monitoring was at fixed […]. In the 1600R and ECIS Zθ systems, cells were monitored at 62.5, 125, 250, 500, 1,000, 2,000, 4,000, 8,000, 16,000, 32,000 and 64,000 Hz. The adhesion was analysed by the integrated Rb modelling method.\nUsing the ECIS Theta96 model, we tested the response of cells to stibugluconate over a range of concentrations. HaCaT cells responded over the range of concentrations tested in that there was an increase in cell adhesion between 0.16-20 uM with 20 uM showing the maximum effects, FIGS. 5 & 6. Likewise, the cells also responded to stibogluconate by increasing their migration from concentrations as low as 160 nM to 100 uM, FIGS. 7, 8 & 9."}, "[2]": {"experiment": "Tolerance in db/db during wound healing study", "assay_type": "in vivo, mice", "conditions": "systemic, every other day, two week period", "procedure": "(§2) The first tolerance test was conducted on the CD-1 athymic (Charles River Laboratories). Briefly, CD-1 of 4-6 weeks old, 20 g in weight, were housed in filter topped cages. Sodium stibogluconate a known PTPRK inhibitor was injected, via the intraperitoneal route, on a daily basis. The compound was given at 100 final concentration (equivalent to ˜10 mg/kg body weight) in 100 ul in volume. CD-1 were observed daily, weighed twice weekly. An additional tolerance and efficacy test was carried out using the db/db strain.\n(§3) The diabetic strain of db/db was obtained from Harlan. 4-6 weeks old with body weight at 20 g were used. Creation of a wound was according to a recently described method. Briefly, after being housed for a week, the db/db were first ear-pieced using an puncher, in order to create a wound (hole) of 1 mm in diameter. The following day after wound creation, all the db/db were weighed and the wound was photographed using a digital camera. Treatment was given systemically (by IP injection) or topically (by manually applying the compound in gel into the wound area). Both treatments were given every other day, twice weekly or weekly. Images were obtained weekly. The size of the wounds was determined using an image analysis software and is shown here as the area in pixels.\nFormulation of the Compounds. • 1. For systemic application, Sodium stibogluconate was dissolved in BSS and diluted in the same for the required concentration. The solutions were prepared that each 100 ul contained the correct amount of compounds and was aliquatted and stored as such at −20° C. until used. The compound was injected every other day by the IP route. • 2. For topical application, we used two carrier gels that are currently used in wound care, namely Bactroban and Aquagel. From the concentrated master stock of Sodium stibogluconate, 100 ul of the stock solution was mixed with 2 grams of the respective gels, followed by low speed homogenisation using a hand held homogeniser, for 2 minutes. […]"}, "[3]": {"tested_on": "db/db mice", "experiment": "In vivo efficacy test, ear-punch wound healing in diabetic db/db", "conditions": "for rate of wound healing: 2-100 mg/ml", "description": "as §3\nFormulation of the Compounds. • 1. For systemic application, Sodium stibogluconate was dissolved in BSS and diluted in the same for the required concentration. The solutions were prepared that each 100 ul contained the correct amount of compounds and was aliquatted and stored as such at −20° C. until used. The compound was injected every other day by the IP route. • 2. For topical application, we used two carrier gels that are currently used in wound care, namely Bactroban and Aquagel. From the concentrated master stock of Sodium stibogluconate, 100 ul of the stock solution was mixed with 2 grams of the respective gels, followed by low speed homogenisation using a hand held homogeniser, for 2 minutes. […] For use, small amount (150 ul) of the gel was applied to the wound area and gently rubbed in using fingers. • 3. […] Sodium stibogluconate increased the rate of wound healing without producing any side effects. • Sodium stibogluconate was given systemically, at 100 uM.\nUsing the same db/db mice, we further tested the possible dose response by applying stibogluconate at 2 mg/ml. 20 mg/ml and 100 mg/ml, using topical applications. At the same time, we tested two treatment methods: applying the agent on a weekly basis or twice weekly basis. We determined the size of the wound on a weekly basis. […] Using a Two-way ANOVA (Holm-Sidak model), it was shown that in both treatment regimes, there was a highly significant difference between the treatment group and control group, p=0.013, […] and 0.009, control vs 2 mg/ml, 20 mg/ml and 100 mg respectively, for the twice weekly treatment, and p=0.05, 0.013, 0.009 for the weekly treatment group."}, "[4]": {"experiment": "In vivo tolerance test in CD-1 athymic", "conditions": "intraperitoneal, daily, ~10 mg/kg body weight", "procedure": "as §2\nas §2, with “conducted” for “conducted on”, “stibogluconate” for “stibogluconate a known PTPRK inhibitor”, “10” for “˜10”"}, "[5]": {"tested_on": "HECV cells", "experiment": "ECIS cell adhesion assay, HECV endothelial cells", "assay_type": "cell-based, human", "procedure": "HaCaT, a human keratinocyte cell line was purchased from the German Cancer Centre, HECV, a human vascular endothelial cells from Interlab, Milan, Italy, DB/DB mice from Harlan UK.\nHaCaT and HECV cells, which were positive for PTPRK, were transfected with anti-PTPRK transgenes by way of electroporation (270 v). After selection with a selection medium (DMEM with 10 ug/ml blasticidin) for 10 days, clones of selected cells were pooled and used for subsequent analysis.\nas §1"}}, "data": [{"smiles": "O.O.O.O.O.O.O.O.O.O=C([O-])[C@@H]1[O][Sb]2([O-])([O][Sb]34([OH])[O][C@H]([C@H](O)CO)[C@H]([O]3)[C@H](C(=O)[O-])[O]4)[O][C@H]([C@H](O)CO)[C@@H]1[O]2.[Na+].[Na+].[Na+]", "note": "[stibogluconate, Sodium stibogluconate]", "values": [{"measurement": "effect on the migration of the cells (keratinocytes)", "setting": "[1]", "value": "concentration dependent effect"}, {"measurement": "side effects", "setting": "[2]", "value": "did not observe any side effects"}, {"measurement": "tolerance", "setting": "[2]", "value": "well tolerated"}, {"measurement": "weight loss", "setting": "[2]", "value": "no weight loss"}, {"measurement": "wound size versus control group", "setting": "[3]; systemic (IP) at 100 uM, after one week", "value": "smaller than the control group"}, {"measurement": "twice weekly versus weekly administration, rate of wound healing", "setting": "[3]; topical", "value": "marginally more effective"}, {"measurement": "rate of wound healing", "setting": "[3]; topical, twice weekly application", "value": "rapid rate of wound healing"}, {"measurement": "rate of wound healing", "setting": "[3]; topical, weekly application", "value": "rapid rate of wound healing"}, {"measurement": "effect of interrupting the treatment regimen on healing", "setting": "[3]; treatment removed between third and fourth week, weekly or twice weekly regimen", "value": "adversely affects the healing process"}, {"measurement": "tolerance in vivo", "setting": "[4]", "value": "Well Tolerated"}, {"measurement": "cell adhesion to the surface of the electrode (ECIS)", "setting": "[5]; HECV/WT treated with stibogluconate", "value": "rapid adhesion"}, {"measurement": "response to stibogluconate of HECV/PTPRKrib cells compared with HECV/WT", "setting": "[5]; PTPRK knock-down cells, ECIS adhesion", "value": "markedly reduced"}]}]}
